{"source": "patent US10092510B2", "about": "“Veterinary method for inducing emesis” (Orion Corporation, priority 2013, dated 2018)", "tested_on": "dogs", "key": {"[1]": {"settings": "average of 6 dogs, pH 10, conc. 5 mg/ml, dose 30 μg/kg, both eyes"}, "[2]": {"settings": "individual dogs 1-6, pH 10, conc. 5 mg/ml, dose 30 μg/kg, both eyes"}, "[3]": {"settings": "average of 6 dogs, pH 4, conc. 10 mg/ml, dose 50 μg/kg, both eyes, fasted"}, "[4]": {"settings": "average of 6 dogs, pH 4, conc. 40 mg/ml, dose 100 μg/kg, right eye, fed"}, "[5]": {"settings": "individual dogs 1-6, pH 4, conc. 10 mg/ml, dose 50 μg/kg, both eyes, fasted, hydrochloride"}, "[6]": {"settings": "individual dogs 1-6, pH 4, conc. 40 mg/ml, dose 100 μg/kg, right eye, fed, hydrochloride"}}, "note": "“And” between values parts separate entries of the source, which are not always exact repeats. Equal values may be shown once. Where a name gives a salt, the structure may show the parent alone. Read-outs that look alike come from different tables or passages of the source.", "procedure": "Aqueous eye drop solution comprising ropinirole hydrochloride (10 mg/ml or 40 mg/ml, pH 4) was administered into the eyes of six test dogs with doses of 50 μg/kg and 100 μg/kg for induction of emesis."}
{"smiles": "CCCN[C@H]1CCc2nc(N)sc2C1", "note": "[Pramipexole]", "values": [{"measurement": "Number of vomits", "setting": "[1]", "value": 3.3}, {"measurement": "Onset of the first vomit (average induction time for emesis)", "setting": "[1]", "value": 4.5, "unit": "min"}, {"measurement": "The last vomit (vomiting ended on the average)", "setting": "[1]", "value": 31.3, "unit": "min"}, {"measurement": "Prolonged emesis or irritation", "setting": "eye drop solution 5 mg/ml, pH 10, dose 30 μg/kg, six dogs", "value": "No prolonged emesis or significant irritation"}, {"measurement": "Number of vomits", "setting": "[2]", "value": "6 (2×) and 1 (2×) and 3 (2×)"}, {"measurement": "Onset of the first vomit", "setting": "[2]", "value": "2 min and 3 min (3×) and 4 min and 12 min"}, {"measurement": "The last vomit", "setting": "[2]", "value": "62 min (2×) and 3 min and 27 min and 22 min and 12 min"}]}
{"smiles": "CCCN(CCC)CCc1cccc2c1CC(=O)N2", "note": "[Ropinirole HCl, Ropinirole hydrochloride]", "values": [{"measurement": "Number of vomits", "setting": "[3]", "value": 3.5}, {"measurement": "Onset of the first vomit (average induction time for emesis)", "setting": "[3]", "value": 6.7, "unit": "min"}, {"measurement": "The last vomit (vomiting ended on the average)", "setting": "[3]", "value": 20.5, "unit": "min"}, {"measurement": "Number of vomits", "setting": "[4]", "value": 2.3}, {"measurement": "Onset of the first vomit (average induction time for emesis)", "setting": "[4]", "value": 4.8, "unit": "min"}, {"measurement": "The last vomit (vomiting ended on the average)", "setting": "[4]", "value": 12.3, "unit": "min"}, {"measurement": "Time at which vomiting ends, from the administration", "setting": "eye drop composition, general statement (typically)", "value": "≤ 20", "unit": "min"}, {"measurement": "Onset of emesis and tolerability when administered to the eye of the animal", "setting": "general statement of findings", "value": "consistent and rapid onset of emesis without producing unnecessarily prolonged emesis, ocular discomfort or significant local irritation"}, {"measurement": "Number of vomits", "setting": "[5]", "value": "3 (4×) and 2 and 7"}, {"measurement": "Onset of the first vomit", "setting": "[5]", "value": "7 min and 6 min (3×) and 4 min and 11 min"}, {"measurement": "The last vomit", "setting": "[5]", "value": "21 min and 20 min (2×) and 14 min and 12 min and 36 min"}, {"measurement": "Number of vomits", "setting": "[6]", "value": "2 (3×) and 1 and 4 and 3"}, {"measurement": "Onset of the first vomit", "setting": "[6]", "value": "6 min (2×) and 2 min and 7 min and 5 min and 3 min"}, {"measurement": "The last vomit", "setting": "[6]", "value": "9 min and 10 min and 7 min and 15 min and 20 min (2×)"}, {"measurement": "Dogs vomiting / dogs treated", "setting": "pH 4, conc. 10 mg/ml, dose 50 μg/kg, both eyes, fasted", "value": "Average 6/6"}, {"measurement": "Dogs vomiting / dogs treated", "setting": "pH 4, conc. 40 mg/ml, dose 100 μg/kg, right eye, fed", "value": "Average 6/6"}]}
